# Measurements: US20200187499A1, “SUBSTITUTED BENZYL-4-AMINOPICOLINIC ESTERS AND PYRIMIDINO-4-CARBOXYLIC ESTERS, METHODS FOR THE PRODUCTION THEREOF, AND USE THEREOF AS HERBICIDES AND PLANT GROWTH REGULATORS” (Bayer CropScience Aktiengesellschaft, priority 2017, published 2020)
# What was measured:
# Type in all cases: in vivo
# [1] = tested on: POLCO; assay: Post-emergence herbicidal action; conditions: Table 5, post-emergence (PO), 320 g/ha, assessed after about 3 weeks
# Experimental: (§1) Seeds of monocotyledonous and dicotyledonous weed and crop plants are laid out in sandy loam soil in wood-fiber pots, covered with soil and cultivated in a greenhouse under good growth conditions. 2 to 3 weeks after sowing, the test plants are treated at the one-leaf stage. The compounds of the invention, formulated in the form of wettable powders (WP) or as emulsion concentrates (EC), are then sprayed onto the green parts of the plants in the form of an aqueous suspension or emulsion at a water application rate equating to 600 to 800 l/ha, with addition of 0.2% wetting agent. After the test plants have been left to stand in the greenhouse under optimal growth conditions for about 3 weeks, the action of the preparations is assessed visually in comparison to untreated controls (herbicidal action in percent (%): 100% activity=the plants have died, 0% activity=like control plants). […] At the same time, inventive compounds leave Gramineae crops such as barley, wheat, rye, millet/sorghum, corn or rice virtually undamaged when applied post-emergence, even at high active ingredient dosages. In addition, some substances are also harmless to dicotyledonous crops such as soya, cotton, oilseed rape, sugar beet or potatoes. Some of the compounds according to the invention have high selectivity and are therefore suitable for controlling unwanted vegetation in agricultural crops by the post-emergence method. The tables below illustrate, in an exemplary manner, the post-emergence herbicidal action of the compounds according to the invention, the herbicidal activity being stated in percent.
# [2] = tested on: SETVI; assay: Post-emergence herbicidal action; conditions: 320 g/ha, assessed after about 3 weeks
# Experimental: as §1
# [3] = tested on: AMARE; assay: Post-emergence herbicidal action; conditions: 320 g/ha, assessed after about 3 weeks
# Experimental: as §1
# [4] = tested on: PHBPU; assay: Post-emergence herbicidal action; conditions: Table 5, post-emergence (PO), 320 g/ha, assessed after about 3 weeks
# Experimental: as §1
# [5] = tested on: STEME; assay: Post-emergence herbicidal action; conditions: 320 g/ha, assessed after about 3 weeks
# Experimental: as §1
# [6] = tested on: VIOTR; assay: Post-emergence herbicidal action; conditions: Table 5, post-emergence (PO), 320 g/ha, assessed after about 3 weeks
# Experimental: as §1
# [7] = tested on: ABUTH; assay: Post-emergence herbicidal action; conditions: 320 g/ha, assessed after about 3 weeks
# Experimental: as §1
# [8] = tested on: ECHCG; assay: Post-emergence herbicidal action; conditions: 320 g/ha, assessed after about 3 weeks
# Experimental: as §1
# [9] = tested on: AMARE; assay: Pre-emergence herbicidal action; conditions: 320 g/ha, scored after 3 weeks
# Source text: (§2) Seeds of monocotyledonous and dicotyledonous weed plants and crop plants are laid out in sandy loam soil in wood-fiber pots and covered with soil. The compounds of the invention, formulated in the form of wettable powders (WP) or as emulsion concentrates (EC), are then applied to the surface of the covering soil in the form of an aqueous suspension or emulsion at a water application rate equating to 600 to 800 I/ha, with addition of 0.2% wetting agent. After the treatment, the pots are placed in a greenhouse and kept under good growth conditions for the trial plants. The damage to the test plants is scored visually after a test period of 3 weeks by comparison with untreated controls (herbicidal activity in percent (%): 100% activity=the plants have died, 0% activity=like control plants).
# (§3) At the same time, inventive compounds leave Gramineae crops such as barley, wheat, rye, millet/sorghum, corn or rice virtually undamaged when applied pre-emergence, even at high active ingredient dosages. In addition, some substances are also harmless to dicotyledonous crops such as soya, cotton, oilseed rape, sugar beet or potatoes. […] The tables below illustrate, in an exemplary manner, the pre-emergence herbicidal action of the compounds according to the invention, the herbicidal activity being stated in percent.
# [10] = tested on: ECHCG; assay: Pre-emergence herbicidal action; conditions: 320 g/ha, scored after 3 weeks
# Source text: as §2, §3
# [11] = tested on: ALOMY; assay: Pre-emergence herbicidal action; conditions: Table 3, pre-emergence (PE), 320 g/ha, scored after 3 weeks
# Source text: as §2, §3
# [12] = tested on: SETVI; assay: Pre-emergence herbicidal action; conditions: Table 3, pre-emergence (PE), 320 g/ha, scored after 3 weeks
# Source text: as §2, §3
# [13] = tested on: ABUTH; assay: Pre-emergence herbicidal action; conditions: Table 3, pre-emergence (PE), 320 g/ha, scored after 3 weeks
# Source text: as §2, §3
Compound,"Herbicidal action against AMARE ([9]; Table 4, pre-emergence (PE)) [%]","Herbicidal action against ECHCG ([10]; Table 4, pre-emergence (PE)) [%]",Herbicidal action against ALOMY [11] [%],Herbicidal action against SETVI [12] [%],"Herbicidal action against AMARE ([9]; Table 3, pre-emergence (PE)) [%]",Herbicidal action against ABUTH [13] [%],"Herbicidal action against ECHCG ([10]; Table 3, pre-emergence (PE)) [%]","Herbicidal action against SETVI ([2]; Table 6, post-emergence (PO)) [%]","Herbicidal action against AMARE ([3]; Table 6, post-emergence (PO)) [%]","Herbicidal action against STEME ([5]; Table 6, post-emergence (PO)) [%]","Herbicidal action against ABUTH ([7]; Table 6, post-emergence (PO)) [%]",further results
Nc1c(F)c(-c2ccc3sccc3c2)nc(C(=O)OCc2ccc(Cl)cc2)c1Cl [Example I-65],,,,,,,,,,,,"Herbicidal action against POLCO [1]: 100%; Herbicidal action against SETVI ([2]; Table 5, post-emergence (PO)): 90%; Herbicidal action against AMARE ([3]; Table 5, post-emergence (PO)): 100%; Herbicidal action against PHBPU [4]: 0%; Herbicidal action against STEME ([5]; Table 5, post-emergence (PO)): 80%; Herbicidal action against VIOTR [6]: 10%; Herbicidal action against ABUTH ([7]; Table 5, post-emergence (PO)): 80%; Herbicidal action against ECHCG ([8]; Table 5, post-emergence (PO)): 80%"
Nc1c(F)c(-c2ccc3ccsc3c2)nc(C(=O)OCc2c(F)cc(F)cc2F)c1Cl [Example I-55],100,40,,,,,,,,,,"Herbicidal action against POLCO [1]: 90%; Herbicidal action against SETVI ([2]; Table 5, post-emergence (PO)): 90%; Herbicidal action against AMARE ([3]; Table 5, post-emergence (PO)): 100%; Herbicidal action against PHBPU [4]: 0%; Herbicidal action against STEME ([5]; Table 5, post-emergence (PO)): 90%; Herbicidal action against VIOTR [6]: 10%; Herbicidal action against ABUTH ([7]; Table 5, post-emergence (PO)): 60%; Herbicidal action against ECHCG ([8]; Table 5, post-emergence (PO)): 90%"
Nc1cc(-c2ccc3ccsc3c2)nc(C(=O)OCc2c(F)cc(F)cc2F)c1Cl [Example I-32],,,70,80,100,30,80,,,,,"Herbicidal action against AMARE ([3]; Table 9, post-emergence (PO)): 100%; Herbicidal action against ABUTH ([7]; Table 9, post-emergence (PO)): 90%"
Nc1c(F)c(-c2ccc3occc3c2)nc(C(=O)OCc2ccc(F)cc2)c1Cl [Example I-34],100,50,,,,,,,,,,"Herbicidal action against POLCO [1]: 80%; Herbicidal action against SETVI ([2]; Table 5, post-emergence (PO)): 100%; Herbicidal action against AMARE ([3]; Table 5, post-emergence (PO)): 100%; Herbicidal action against PHBPU [4]: 40%; Herbicidal action against STEME ([5]; Table 5, post-emergence (PO)): 90%; Herbicidal action against VIOTR [6]: 0%; Herbicidal action against ABUTH ([7]; Table 5, post-emergence (PO)): 90%; Herbicidal action against ECHCG ([8]; Table 5, post-emergence (PO)): 80%"
Nc1cc(-c2ccc3sccc3c2)nc(C(=O)OCc2cccc(Cl)c2)c1Cl [Example I-40],80,10,,,,,,,,,,"Herbicidal action against POLCO [1]: 40%; Herbicidal action against SETVI ([2]; Table 5, post-emergence (PO)): 90%; Herbicidal action against AMARE ([3]; Table 5, post-emergence (PO)): 100%; Herbicidal action against PHBPU [4]: 80%; Herbicidal action against STEME ([5]; Table 5, post-emergence (PO)): 80%; Herbicidal action against VIOTR [6]: 60%; Herbicidal action against ABUTH ([7]; Table 5, post-emergence (PO)): 90%; Herbicidal action against ECHCG ([8]; Table 5, post-emergence (PO)): 90%"
Nc1c(F)c(-c2ccc3ccsc3c2)nc(C(=O)OCc2ccc(F)cc2F)c1Cl [Example I-42],,,30,20,100,0,40,20,90,80,80,
COc1c(F)ccc(COC(=O)c2nc(-c3ccc4occc4c3)cc(N)c2Cl)c1F [Example I-17],100,90,,,,,,,,,,"Herbicidal action against SETVI ([2]; Table 7, post-emergence (PO)): 100%; Herbicidal action against SETVI ([2]; Table 8, post-emergence (PO)): 100%; Herbicidal action against AMARE ([3]; Table 7, post-emergence (PO)): 100%; Herbicidal action against AMARE ([3]; Table 8, post-emergence (PO)): 100%; Herbicidal action against ABUTH ([7]; Table 7, post-emergence (PO)): 90%; Herbicidal action against ABUTH ([7]; Table 8, post-emergence (PO)): 90%; Herbicidal action against ECHCG ([8]; Table 7, post-emergence (PO)): 90%; Herbicidal action against ECHCG ([8]; Table 8, post-emergence (PO)): 90%"
Nc1c(F)c(-c2ccc3occc3c2)nc(C(=O)OCc2c(F)cc(F)cc2F)c1Cl [Example I-52],,,80,40,80,20,30,20,90,80,80,
Nc1cc(-c2ccc3ccoc3c2)nc(C(=O)OCc2c(F)c(F)c(F)c(F)c2F)c1Cl [Example I-54],80,0,,,,,,,,,,"Herbicidal action against SETVI ([2]; Table 7, post-emergence (PO)): 80%; Herbicidal action against SETVI ([2]; Table 8, post-emergence (PO)): 80%; Herbicidal action against AMARE ([3]; Table 7, post-emergence (PO)): 100%; Herbicidal action against AMARE ([3]; Table 8, post-emergence (PO)): 100%; Herbicidal action against ABUTH ([7]; Table 7, post-emergence (PO)): 80%; Herbicidal action against ABUTH ([7]; Table 8, post-emergence (PO)): 80%; Herbicidal action against ECHCG ([8]; Table 7, post-emergence (PO)): 80%; Herbicidal action against ECHCG ([8]; Table 8, post-emergence (PO)): 80%"
Nc1c(F)c(-c2ccc3occc3c2)nc(C(=O)OCc2ccc(Cl)cc2)c1Cl [Example I-47],,,60,50,100,20,70,70,90,80,90,
Nc1cc(-c2ccc3ccoc3c2)nc(C(=O)OCc2ccc(F)cc2F)c1Cl [Example I-43],100,0,,,,,,,,,,"Herbicidal action against SETVI ([2]; Table 7, post-emergence (PO)): 90%; Herbicidal action against SETVI ([2]; Table 8, post-emergence (PO)): 90%; Herbicidal action against AMARE ([3]; Table 7, post-emergence (PO)): 100%; Herbicidal action against AMARE ([3]; Table 8, post-emergence (PO)): 100%; Herbicidal action against ABUTH ([7]; Table 7, post-emergence (PO)): 90%; Herbicidal action against ABUTH ([7]; Table 8, post-emergence (PO)): 90%; Herbicidal action against ECHCG ([8]; Table 7, post-emergence (PO)): 80%; Herbicidal action against ECHCG ([8]; Table 8, post-emergence (PO)): 80%"
Nc1c(F)c(-c2ccc3ccoc3c2)nc(C(=O)OCc2ccc(Cl)cc2)c1Cl [Example I-15],,,0,0,100,90,30,80,100,80,100,
Nc1cc(-c2ccc3ccsc3c2)nc(C(=O)OCc2c(F)c(F)c(F)c(F)c2F)c1Cl [Example I-25],,,60,80,100,0,70,100,100,100,90,
Nc1cc(-c2ccc3ccoc3c2)nc(C(=O)OCc2ccc(Cl)cc2)c1Cl [Example I-30],,,40,90,100,20,100,90,100,100,90,
Nc1cc(-c2ccc3occc3c2)nc(C(=O)OCc2cccc(C(F)(F)F)c2)c1Cl [Example I-11],,,80,100,100,20,80,90,100,100,100,
Nc1cc(-c2ccc3occc3c2)nc(C(=O)OCc2ccc(Cl)cc2)c1Cl [Example I-31],,,20,50,90,30,30,90,100,100,100,
